Measurements: paper PMC8842277, “Highly Antiproliferative Latonduine and Indolo[2,3-c]quinoline Derivatives: Complex Formation with Copper(II) Markedly Changes the Kinase Inhibitory Profile” (Journal of Medicinal Chemistry, 2022)

Legend:
[1] = Aqueous stability in HEPES and PBS buffer by UV–vis; type: physicochemical; settings: pH 7.40, 10 mM HEPES or PBS, several hours
Method: Prior to the biological assays, the aqueous stability of selected compounds (HL^4, 4, HL^8, and 8) was measured as a function of time by UV–vis spectrophotometry at pH = 7.40 in 10 mM HEPES in PBS and in blood serum diluted by factor 3 (dilutions were made in HEPES and in PBS as well). […] This process took several hours, and it was in all cases less pronounced in the PBS buffer than in the HEPES medium.
Aqueous stability of 4, 8, and HL^4 was investigated in phosphate-buffered saline (PBS) and 10 mM HEPES buffers and in three-times diluted blood serum (Sigma Aldrich, from human male AB plasma) at pH = 7.40. The concentration of the compounds was between 5 and 10 μM. Blood serum was filtered on a 1.25 μm polyethersulfone membrane syringe filter and diluted with 10 mM HEPES or PBS buffer.

calf thymus DNA (ct-DNA) = experiment: Ethidium bromide displacement and fluorescence lifetime; type: binding; settings: 10 μM ct-DNA, 5 μM EtBr, 10 mM HEPES, pH 7.40
Method: The interaction of 4 and 8 and HL^4 and HL^8 with ct-DNA was investigated by spectrofluorometry in ethidium bromide (EtBr) displacement studies. EtBr is a fluorescent probe, and its fluorescence intensity increases upon intercalation into the DNA helix. […] Decrease in the fluorescence may indicate (i) the displacement of EtBr or (ii) (partial) quenching of the fluorescence of the bound probe. In order to separate these processes, fluorescence lifetime measurements were carried out. […] In addition, they provided evidence that the two copper(II) complexes bind to ct-DNA. However, complex 8 replaced EtBr more effectively than 4. […]
Fluorescence measurements were carried out on a Fluoromax (Horiba Jobin Yvon) fluorometer. […] The excitation wavelengths were 510 or 455 nm, and the fluorescence emission was measured in the range 530–750 nm. Corrections for self-absorbance and inner filter effect were done according to our former work.[106] Fluorescence lifetime was measured on the same fluorometer equipped with a DeltaHub time-correlated single photon counting (TCSPC) controller using a NanoLED light source N-455 (Horiba Jobin Yvon). […] The fluorescence intensity decay over time is described by a sum of exponentials, [drawing 3] […] Fractional intensities were calculated as described in our former work.[105] […]

Structure (SMILES): CC(=NNC1=NCc2ccccc2-c2c1[nH]c1ccc(Br)cc21)c1ccc(CN2CCOCC2)cn1.[Cl][Cu][Cl] [compound 4, CuCl2(HL^4)·0.5H2O]
- Behaviour in buffer solutions over time [1]: slow precipitation
- Effect on fluorescence of the EtBr–ct-DNA system (calf thymus DNA (ct-DNA)): decreased the emission intensity

Structure (SMILES): CC(=NNc1nc2ccccc2c2c1[nH]c1ccc(Br)cc12)c1ccc(CN2CCOCC2)cn1.[Cl][Cu][Cl] [compound 8, CuCl2(HL^8)·H2O]
- Behaviour in buffer solutions over time [1]: slow precipitation
- Effect on fluorescence of the EtBr–ct-DNA system (calf thymus DNA (ct-DNA)): decreased the emission intensity
